Measurements from PubChem BioAssay AID1963965 (Molecular Pharmacology Branch, DTP, NCI, 2024).

Test system: 996289-038-R-J1-PDC spheroid viability
Test: Anticancer human tumor 996289-038-R-J1-PDC patient-derived colon adenocarcinoma cell line growth inhibition [PI3K]
Details: spheroids with HUVEC and MSC; for IC50: curve of first compound; for viability, T/C: stronger effect = lower value
Summary of the method: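 Tumor cells grown as multi-cell spheroids with HUVEC endothelial cells and MSC fibroblast-like stroma were treated with targeted agents combined with inavolisib, alpelisib, duvelisib or copanlisib. Doses fell in half-log steps from near clinical Cmax, else from 10 microM. Viability was measured.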

[1] = second compound 0.00316 µM, first compound 0.0316 µM
[2] = second compound 0.00316 µM, first compound 0.1 µM
[3] = second compound 0.01 µM, first compound 0.0316 µM
[4] = second compound 0.01 µM, first compound 0.1 µM
[5] = second compound 0.0316 µM, first compound 0.0316 µM
[6] = second compound 0.0316 µM, first compound 0.1 µM
[7] = second compound 0.1 µM, first compound 0.0316 µM
[8] = second compound 0.1 µM, first compound 0.1 µM
[9] = second compound 0.316 µM, first compound 0.0316 µM
[10] = second compound 0.316 µM, first compound 0.1 µM
[11] = second compound 1 µM, first compound 0.0316 µM
[12] = second compound 1 µM, first compound 0.1 µM
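Further: spheroids exposed to compounds for seven days before viability read.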
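Wherever viability, T/C is given: luminescence used as a proxy for viable cell amount; percent viability relative to DMSO vehicle control as 100%.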

SMILES: C[C@@H](NC(=O)c1ncnc(N)c1Cl)c1ncc(C(=O)Nc2cc(C(F)(F)F)c(Cl)cn2)s1 + CC(Nc1ccc2c(c1)OCCn1cc(N3C(=O)OCC3C(F)F)nc1-2)C(N)=O
- IC50 (second compound 0.00316 µM): > 10 µM
- IC50 (second compound 0.01 µM): > 10 µM
- IC50 (second compound 0.0316 µM): > 10 µM
- IC50 (second compound 0.1 µM): > 10 µM
- IC50 (second compound 0.316 µM): > 10 µM
- IC50 (second compound 1 µM): > 10 µM
- viability, T/C [1]: 115%
- viability, T/C [2]: 124%
- viability, T/C (second compound 0.00316 µM, first compound 0.316 µM): 129%
- viability, T/C (second compound 0.00316 µM, first compound 1 µM): 123%
- viability, T/C (second compound 0.00316 µM, first compound 3.16 µM): 135%
- viability, T/C (second compound 0.00316 µM, first compound 10 µM): 122%
- viability, T/C [3]: 119%
- viability, T/C [4]: 124%
- viability, T/C (second compound 0.01 µM, first compound 0.316 µM): 107%
- viability, T/C (second compound 0.01 µM, first compound 1 µM): 139%
- viability, T/C (second compound 0.01 µM, first compound 3.16 µM): 140%
- viability, T/C (second compound 0.01 µM, first compound 10 µM): 122%
- viability, T/C [5]: 116%
- viability, T/C [6]: 103%
- viability, T/C (second compound 0.0316 µM, first compound 0.316 µM): 111%
- viability, T/C (second compound 0.0316 µM, first compound 1 µM): 120%
- viability, T/C (second compound 0.0316 µM, first compound 3.16 µM): 128%
- viability, T/C (second compound 0.0316 µM, first compound 10 µM): 111%
- viability, T/C [7]: 93.7%
- viability, T/C [8]: 93.1%
- viability, T/C (second compound 0.1 µM, first compound 0.316 µM): 91.7%
- viability, T/C (second compound 0.1 µM, first compound 1 µM): 119%
- viability, T/C (second compound 0.1 µM, first compound 3.16 µM): 107%
- viability, T/C (second compound 0.1 µM, first compound 10 µM): 110%
- viability, T/C [9]: 70%
- viability, T/C [10]: 87.6%
- viability, T/C (second compound 0.316 µM, first compound 0.316 µM): 87.2%
- viability, T/C (second compound 0.316 µM, first compound 1 µM): 105%
- viability, T/C (second compound 0.316 µM, first compound 3.16 µM): 109%
- viability, T/C (second compound 0.316 µM, first compound 10 µM): 83.3%
- viability, T/C [11]: 68%
- viability, T/C [12]: 78.1%
- viability, T/C (second compound 1 µM, first compound 0.316 µM): 57.8%
- viability, T/C (second compound 1 µM, first compound 1 µM): 81.9%
- viability, T/C (second compound 1 µM, first compound 3.16 µM): 85.6%
- viability, T/C (second compound 1 µM, first compound 10 µM): 65.3%

SMILES: Cn1ncnc1[C@H]1c2n[nH]c(=O)c3cc(F)cc(c23)N[C@@H]1c1ccc(F)cc1 + CC(Nc1ccc2c(c1)OCCn1cc(N3C(=O)OCC3C(F)F)nc1-2)C(N)=O
- IC50 (second compound 0.00316 µM): > 0.1 µM
- IC50 (second compound 0.01 µM): > 0.1 µM
- IC50 (second compound 0.0316 µM): > 0.1 µM
- IC50 (second compound 0.1 µM): > 0.1 µM
- IC50 (second compound 0.316 µM): > 0.1 µM
- IC50 (second compound 1 µM): > 0.1 µM
- viability, T/C (second compound 0.00316 µM, first compound 0.000316 µM): 109%
- viability, T/C (second compound 0.00316 µM, first compound 0.001 µM): 104%
- viability, T/C (second compound 0.00316 µM, first compound 0.00316 µM): 95%
- viability, T/C (second compound 0.00316 µM, first compound 0.01 µM): 112%
- viability, T/C [1]: 99.5%
- viability, T/C [2]: 90.2%
- viability, T/C (second compound 0.01 µM, first compound 0.000316 µM): 103%
- viability, T/C (second compound 0.01 µM, first compound 0.001 µM): 102%
- viability, T/C (second compound 0.01 µM, first compound 0.00316 µM): 103%
- viability, T/C (second compound 0.01 µM, first compound 0.01 µM): 111%
- viability, T/C [3]: 106%
- viability, T/C [4]: 98.6%
- viability, T/C (second compound 0.0316 µM, first compound 0.000316 µM): 114%
- viability, T/C (second compound 0.0316 µM, first compound 0.001 µM): 85.7%
- viability, T/C (second compound 0.0316 µM, first compound 0.00316 µM): 88.5%
- viability, T/C (second compound 0.0316 µM, first compound 0.01 µM): 101%
- viability, T/C [5]: 97.3%
- viability, T/C [6]: 85.4%
- viability, T/C (second compound 0.1 µM, first compound 0.000316 µM): 89.1%
- viability, T/C (second compound 0.1 µM, first compound 0.001 µM): 87.6%
- viability, T/C (second compound 0.1 µM, first compound 0.00316 µM): 77.5%
- viability, T/C (second compound 0.1 µM, first compound 0.01 µM): 91.6%
- viability, T/C [7]: 92%
- viability, T/C [8]: 78.3%
- viability, T/C (second compound 0.316 µM, first compound 0.000316 µM): 81.7%
- viability, T/C (second compound 0.316 µM, first compound 0.001 µM): 77.8%
- viability, T/C (second compound 0.316 µM, first compound 0.00316 µM): 81.2%
- viability, T/C (second compound 0.316 µM, first compound 0.01 µM): 82.2%
- viability, T/C [9]: 79.2%
- viability, T/C [10]: 68.7%
- viability, T/C (second compound 1 µM, first compound 0.000316 µM): 53%
- viability, T/C (second compound 1 µM, first compound 0.001 µM): 59.8%
- viability, T/C (second compound 1 µM, first compound 0.00316 µM): 68.6%
- viability, T/C (second compound 1 µM, first compound 0.01 µM): 58.1%
- viability, T/C [11]: 59.2%
- viability, T/C [12]: 54.2%
